{
  "source": "patent US6416791B1",
  "about": "“Alimentary integrator” (priority 1999, dated 2002)",
  "key": {"[1]": {"system": "patients suffering from different types of neoplasia in advanced phase", "test": "testing of potassium ribose ascorbate, given three times a day, in 30 terminally-ill neoplasia patients for more than ten years", "type": "in vivo, human", "experimental": "In FIGS. 2-5 and 8-11 are shown the results of a testing carried out for more than ten years. The testing was carried out on a sample of 30 patients suffering from different types of neoplasia in advanced phase (terminally-ill patients).\nThe patients were given potassium ribose ascorbate three times a day.\nThe integrator of the present invention not only allows a good survival percentage but also improves the symptoms of the diseases. In FIG. 5 is a graph showing the changes in ten symptoms among the patients above mentioned. On abscissa the graph presents the different symptoms; from left to right thoracic pain, abdominal pain, osteomuscular pain, dyspnea, cough, nausea, emesis, ascites, temperature, asthenia. Every column is composed by five secondary columns which refer to the different time of recording of the data, with 15 days interval, from left to right: base condition (at the beginning of the treatment), at 15th day, at 30th day, at 45th and at 60th day The rate utilized as ordinate in the graph is relevant to the intensity (amount) of the symptoms. This rate is a normalized value among the different rates utilized for measuring the ten symptoms (i.e. degrees for the temperature, an objective value for pain, cough, etc). A higher rate means a higher means intensity of the symptom.\nIn particular, FIG.8 is relevant to the mean changes in the hemoglobin rate, in the graph, the abscissa is divided in steps corresponding to 15 days intervals, while the ordinate is expressed in g/dl. FIG. 9 is relevant to the mean changes in the white cells number; in the graph, the abscissa is divided in steps corresponding to 15 days intervals, while the ordinate is expressed in number of cells. FIG. 10 is relevant to the mean changes in the red cells number; in the graph, the abscissa is divided in steps corresponding to 15 days intervals, while the ordinate is expressed in thousands of cells. FIG. 11 is relevant to the mean changes in the erythrosedimentation rate at first hour; in the graph, the abscissa is divided in steps corresponding to 15 days intervals, while the ordinate is expressed in erythrosedimentation rate."}, "[2]": {"test": "stability of the salt (oxidizability)", "type": "physicochemical", "settings": "due to its easy oxidizability"}, "[3]": {"test": "water solubility of the salt", "type": "physicochemical"}, "[4]": {"test": "toxicity at the stated dosages", "settings": "given the stated dosages; long-term use"}, "[5]": {"system": "patients (symptoms of the disease)", "test": "comparison testing of symptom changes in patients treated with potassium citrate or potassium tartarate", "type": "in vivo, human", "settings": "FIGS. 6 and 7; 4 patients per compound; base condition, 10th and 20th day", "excerpt": "The substitution of one or more components of the compound causes an inefficacy of the relevant different compound.\nThe graph of FIG. 6 is relevant to the changes in symptoms among 4 patients treated using potassium citrate, while the graph of FIG. 7 is relevant to the changes in symptoms among 4 patients treated using potassium tartarate. Similarly to the graph of FIG. 5, on abscissa each graph presents the different symptoms; from left to right-thoracic pain, abdominal pain, osteomuscular pain-dyspnea, cough, nausea, emesis, ascites, temperature, asthenia. The columns are composed by three secondary columns which refer to the different time of recording of the data, with 10 days interval; from left to right base condition (at the beginning of the treatment), at 10th day and at 20th day. Also in these cases the rate utilized as ordinate in the graph is relevant to the intensity (amount) of the symptoms."}},
  "data": [
    {"molecule": "potassium ribose ascorbate", "values": [
      {"measurement": "survival percentage after five years", "setting": "[1]; FIG. 2, terminally-ill patients, by location of neoplasia: brain, breast, lung, ovary, prostate, skin", "result": "very high"},
      {"measurement": "survival percentage after ten years", "setting": "[1]; FIG. 3, terminally-ill patients, by location of neoplasia: brain, breast, lung, ovary, prostate, skin", "result": "very high"},
      {"measurement": "change in intensity of ten symptoms (thoracic, abdominal, osteomuscular pain, dyspnea, cough, nausea, emesis, ascites, temperature, asthenia)", "setting": "[1]; FIG. 5, normalized rate, base condition, 15th, 30th, 45th and 60th day", "result": "all symptoms decreased"},
      {"measurement": "mean changes in the hemoglobin rate", "setting": "[1]; FIG. 8, 15 days intervals, ordinate in g/dl", "result": "increasing rates"},
      {"measurement": "mean changes in the white cells number", "setting": "[1]; FIG. 9, 15 days intervals, ordinate in number of cells", "result": "increasing rates"},
      {"measurement": "mean changes in the red cells number", "setting": "[1]; FIG. 10, 15 days intervals, ordinate in thousands of cells", "result": "increasing rates"},
      {"measurement": "mean changes in the erythrosedimentation rate at first hour", "setting": "[1]; FIG. 11, 15 days intervals", "result": "decreasing rate"},
      {"measurement": "stability", "setting": "[2]", "result": "somewhat unstable"}
    ]},
    {"molecule": "potassium ribosate", "values": [
      {"measurement": "solubility in water", "setting": "[3]", "result": "easily water-soluble"},
      {"measurement": "stability", "setting": "[2]", "result": "somewhat unstable"},
      {"measurement": "toxicity", "setting": "[4]", "result": "does not produce any toxicity"}
    ]},
    {"molecule": "O=C([O-])C(O)C(O)C(=O)[O-].[K+].[K+]", "note": "(stereo not shown) [potassium tartarate]", "values": [
      {"measurement": "change in intensity of ten symptoms", "setting": "[5]", "result": "substantially increasing symptoms rate"}
    ]},
    {"molecule": "O=C([O-])CC(O)(CC(=O)[O-])C(=O)[O-].[K+].[K+].[K+]", "note": "[potassium citrate]", "values": [
      {"measurement": "change in intensity of ten symptoms", "setting": "[5]", "result": "substantially increasing symptoms rate"}
    ]}
  ]
}
